Columns and labels:
Assay in all cases: relative viability (nuclei count vs DMSO), 5 days (fraction); higher = more cells survive
Bosutinib + Pemetrexed = compound: COc1cc(Nc2c(C#N)cnc3cc(OCCCN4CCN(C)CC4)c(OC)cc23)c(Cl)cc1Cl [Bosutinib] + Nc1nc2[nH]cc(CCc3ccc(C(=O)N[C@@H](CCC(=O)O)C(=O)O)cc3)c2c(=O)[nH]1 [Pemetrexed] (partner 0.2 µM)
Summary of the method: (§1)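 Lung cancer cell lines in 1536-well plates got either a single drug or a fixed anchor-drug dose together with five library-drug doses (not always all listed) in √10 steps, by pin tool, on the day after seeding. Nuclei were counted after 5 days, and relative viability is the treated-to-vehicle ratio of nuclei counts. Values are medians of duplicate plates.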

Bosutinib + Tozasertib = compound: COc1cc(Nc2c(C#N)cnc3cc(OCCCN4CCN(C)CC4)c(OC)cc23)c(Cl)cc1Cl [Bosutinib] + Cc1cc(Nc2cc(N3CCN(C)CC3)nc(Sc3ccc(NC(=O)C4CC4)cc3)n2)n[nH]1 [Tozasertib] (partner 0.1 µM)
Summary of the method: as §1

Bosutinib + Linsitinib = compound: COc1cc(Nc2c(C#N)cnc3cc(OCCCN4CCN(C)CC4)c(OC)cc23)c(Cl)cc1Cl [Bosutinib] + C[C@]1(O)C[C@@H](c2nc(-c3ccc4ccc(-c5ccccc5)nc4c3)c3c(N)nccn32)C1 [Linsitinib] (partner 1 µM)
Summary of the method: as §1

Bosutinib + Phenformin = compound: COc1cc(Nc2c(C#N)cnc3cc(OCCCN4CCN(C)CC4)c(OC)cc23)c(Cl)cc1Cl [Bosutinib] + N=C(N)NC(=N)NCCc1ccccc1 [Phenformin] (partner 250 µM)
Summary of the method: as §1

Bosutinib + Bortezomib = compound: COc1cc(Nc2c(C#N)cnc3cc(OCCCN4CCN(C)CC4)c(OC)cc23)c(Cl)cc1Cl [Bosutinib] + CC(C)C[C@H](NC(=O)[C@H](Cc1ccccc1)NC(=O)c1cnccn1)B(O)O [Bortezomib] (partner 0.002 µM)
Summary of the method: as §1

Cell Line	relative viability (Bosutinib + Pemetrexed; first compound 0.01 µM)	relative viability (Bosutinib + Pemetrexed; first compound 0.03162 µM)	relative viability (Bosutinib + Pemetrexed; first compound 0.1 µM)	relative viability (Bosutinib + Pemetrexed; first compound 1 µM)	relative viability (Bosutinib + Tozasertib; first compound 0.01 µM)	relative viability (Bosutinib + Tozasertib; first compound 0.03162 µM)	relative viability (Bosutinib + Tozasertib; first compound 0.1 µM)	relative viability (Bosutinib + Tozasertib; first compound 1 µM)	relative viability (Bosutinib + Linsitinib; first compound 0.01 µM)	relative viability (Bosutinib + Linsitinib; first compound 0.03162 µM)	relative viability (Bosutinib + Linsitinib; first compound 0.1 µM)	relative viability (Bosutinib + Linsitinib; first compound 1 µM)	relative viability (Bosutinib + Phenformin; first compound 0.01 µM)	relative viability (Bosutinib + Phenformin; first compound 0.03162 µM)	relative viability (Bosutinib + Phenformin; first compound 0.1 µM)	relative viability (Bosutinib + Phenformin; first compound 1 µM)	relative viability (Bosutinib + Bortezomib; first compound 0.01 µM)	relative viability (Bosutinib + Bortezomib; first compound 0.03162 µM)	relative viability (Bosutinib + Bortezomib; first compound 0.1 µM)	relative viability (Bosutinib + Bortezomib; first compound 1 µM)
HCC-44	0.661	0.642	0.683	0.603	1.07	1.18	1.09	0.685	0.696	0.619	0.674	0.559	0.247	0.278	0.185	0.388	0.873	0.891	0.867	0.567
NCI-H2009	0.944	1.06	1.17	0.946	0.732	0.82	0.73	0.572	1.18	1.22	1.2	0.886	0.53	0.49	0.423	0.346	1.17	1.08	1.1	0.795
NCI-H23	0.673	0.644	0.732	0.609	0.368	0.345	0.404	0.364	0.442	0.556	0.647	0.46	0.807	0.77	0.831	0.751	1	1.21	1.04	1.05
NCI-H1355	1.05	0.975	1.06	1.05	0.549	0.603	0.524	0.475	0.824	0.792	0.872	0.687	0.517	0.474	0.448	0.362	1.27	1.24	1.3	1.21
NCI-H2023	0.218	0.263	0.23	0.223	0.295	0.462	0.399	0.233	0.763	0.743	0.62	0.402	0.415	0.4	0.376	0.295	0.945	1.01	1.06	0.813
NCI-H2087	0.705	0.626	0.741	0.631	0.293	0.227	0.222	0.271	0.871	1.08	0.779	0.94	0.563	0.43	0.411	0.457	0.809	1.02	0.876	1.03
NCI-H838	0.268	0.229	0.246	0.253	0.306	0.294	0.263	0.215	1.04	0.97	0.951	0.466	0.658	0.56	0.53	0.375	0.97	0.794	0.78	0.577
LC-2-ad	0.266	0.306	0.287	0.27	0.469	0.401	0.506	0.482	0.902	0.879	0.871	0.78	0.659	0.549	0.577	0.694	1.05	0.98	1.02	1.14
HCC-78	0.893	0.916	0.936	0.859	0.406	0.327	0.439	0.384	0.575	0.492	0.52	0.407	0.665	0.703	0.802	0.7	0.551	0.486	0.428	0.429
LOU-NH91	0.394	0.395	0.378	0.4	0.64	0.645	0.607	0.538	0.939	0.921	0.834	0.521	0.717	0.699	0.636	0.497	0.469	0.487	0.514	0.578
NCI-H1734	0.401	0.392	0.445	0.377	0.245	0.242	0.245	0.248	0.88	0.945	0.914	0.706	0.455	0.382	0.375	0.312	0.948	0.951	0.827	0.879
NCI-H520	0.661	0.666	0.627	0.605	0.407	0.446	0.39	0.347	1.05	1.05	1.03	0.767	0.677	0.64	0.507	0.393	0.771	0.419	0.52	0.396
UMC-11	0.795	0.755	0.807	0.707	0.202	0.191	0.189	0.214	0.916	0.981	0.967	0.866	0.321	0.312	0.312	0.247	0.683	0.778	0.718	0.666
NCI-H596	0.576	0.464	0.503	0.505	1.06	0.828	0.893	0.788	0.941	0.978	1.16	0.831	0.883	0.668	0.721	0.646	1	0.967	1.11	1.02
NCI-H1755	0.405	0.488	0.468	0.45	0.585	0.736	0.605	0.5	0.952	1.03	1.02	0.954	0.635	0.682	0.659	0.588	0.941	1.07	1.03	0.894
SK-LU-1	1.02	0.899	0.982	0.693	0.305	0.289	0.341	0.283	1.06	1.18	1.11	0.631	0.538	0.473	0.507	0.303	1.15	1.21	1.04	0.922

Source: the supplement of paper PMC10307832
